Assay: not given
Conditions: not given

| Molecule | melting point |
| --- | --- |
| CC(C)(C)c1ccc(COc2ccc(C3CCC(c4sccc4Cl)=N3)cc2)cc1 (stereo not shown) [Example I-718, 3-Chloro-2-[5-(4-(4-tert-butylbenzyloxy)-phenyl)-Δ^2-pyrrolin-2-yl]-thiophene] | 102 °C |
| Oc1ccc(C2CCC(c3sccc3Cl)=N2)cc1 (stereo not shown) [Example I-706, 2-(5-(4-Hydroxyphenyl)-Δ^2-pyrrolin-2-yl)-3-chlorothiophene] | 146 °C |

Assay: log P determination
Conditions: not given

| Molecule | logP |
| --- | --- |
| C=CCOc1ccc(C2CCC(c3sccc3Cl)=N2)cc1 (stereo not shown) [Example I-707] | 2.29 |
| C#CCOc1ccc(C2CCC(c3sccc3Cl)=N2)cc1 (stereo not shown) [Example I-720] | 1.97 |
| FC(F)(F)Oc1ccc(Oc2ccc(C3CCC(c4sccc4Cl)=N3)cc2)cc1 (stereo not shown) [Example I-710] | 4.5 |

Same assay, conditions: pH 2.3

| Molecule | logP |
| --- | --- |
| FC(F)(F)Oc1ccc(-c2ccc(C3CCC(c4ccc(Br)s4)=N3)cc2)cc1 (stereo not shown) [Example I-618] | 4.73 |
| FC(F)(F)Oc1ccc(-c2ccc(C3CCC(c4sccc4Cl)=N3)cc2)cc1 (stereo not shown) [Example I-195] | 4.67 |
| CC(C)(C)OC(=O)NC(CCC(=O)c1sccc1F)c1ccc(-c2ccc(OC(F)(F)F)cc2)cc1 (stereo not shown) [II-868] | 5.05 |
| FC(F)(F)Oc1ccc(-c2ccc(C3CCC(c4ncccc4C(F)(F)F)=N3)cc2)cc1 (stereo not shown) [Example I-336] | 5.06 |
| FC(F)(F)Oc1ccc(Oc2ccc(C3CCC(c4sccc4Cl)=N3)cc2)cc1 (stereo not shown) [Example I-708, 2-(5-(4-Trifluoromethoxyphenoxy-phenyl)-Δ^2-pyrrolin-2-yl)-3-chlorothiophene] | 4.5 |
| FC(F)(F)Oc1ccc(-c2ccc(C3CCC(c4ccsc4)=N3)cc2)cc1 (stereo not shown) [Example I-430] | 2.44 |
| FC(F)(F)Oc1ccc(-c2ccc(C3CCC(c4cccs4)=N3)cc2)cc1 (stereo not shown) [Example I-7] | 2.45 |
| Fc1ccsc1C1=NC(c2ccc(-c3ccc(OC(F)(F)F)cc3)cc2)CC1 (stereo not shown) [Example I-868, 5-(3-fluorothien-2-yl)-3,4-dihydro-2-[4′-trifluoromethoxy]-[1,1′-biphenyl]-4-yl-2H-pyrrole] | 3.18 |
| FC(F)(F)Oc1ccc(-c2ccc(C3CCC(c4ccc(Cl)s4)=N3)cc2)cc1 (stereo not shown) [Example I-148] | 4.21 |

Assay: not given
Conditions: not given
Remark: another data set of the same source

| Molecule | logp (pH=7.5) |
| --- | --- |
| 1-dimethylamino-5-phenylpyrrolidone-2 [G (I′-678)] | 1.52 |

Assay: physchem
Conditions: pH 7.5

| Molecule | logP |
| --- | --- |
| c1ccc(C2CCC(c3cccnc3)=N2)cc1 (stereo not shown) [Example I-678] | 2.01 |

— patent US6599924B1, “2-hetaryl-3,4-dihydro-2H-pyrrole derivatives” (Bayer Aktiengesellschaft, priority 1998, dated 2003)
